“And” between values parts separate entries of the source, which are not always exact repeats. Identical values can stand only once.
Legend:
[1] = system: BRET^2 based thrombin biosensor; conditions: cited from earlier work
[2] = system: GFP^2-RG-RLuc thrombin sensor; test: BRET^2 thrombin sensor in microfluidic chip with optical detection chamber; format: biochemical
Excerpt: In a BRET^2 system, Renilla luciferase (RLuc) with coelenterazine 400a (CLZ400A) substrate was used as the photon donor and GFP^2 was used as the acceptor molecule. As the luminescence of BRET^2 is 100-fold smaller than that of the BRET^1.5, the BRET^2 reaction requires efficient mixing at optimal temperature, detection chamber size, flow rates and concentrations to produce highest bioluminescence signal. Thus, this system is used to evaluate different mixing mechanisms (FIG. 8), reaction chamber designs and reaction conditions.
PDMS chips with a Y-shaped microchannel with three mixing elements (FIG. 8), with a rectangular cross section in the microchannels (200 μm in width and 30 μm in height) was used to monitor BRET^2 assays. The detection chambers with different diameter and height were located at the end of the microchannels. The emitting bioluminescence was collected by a multimode optical fiber located underneath the detection chamber. The emissions will be split by dichroic block and going through two band pass filters corresponding to emission band of the donor (430 nm-455 nm) and the emission band of the acceptor (515 nm-555 nm) before going into two corresponding photomultiplier tubes (Hamamatsu H7421). […]
Approximately 75% decrease in BRET^2 signal was measured for on-chip reaction at input flow rate of 50 μL/hr (FIG. 12).

[3] = system: GFP^2-RG-RLuc biosensor; test: Hybrid BRET (BRET^H) thrombin cleavage assay, microplate; format: biochemical; conditions: 54 nM thrombin, 90 minutes, 30° C.; 1 μM fusion protein, 5 μM native coelenterazine
Excerpt: A combination of BRET^1 and BRET^2 techniques was used and referred to herein as hybrid BRET. Specifically, RLuc with native coelenterazine substrate was used as the bioluminescent donor and GFP^2 as the acceptor molecule. The donor and acceptor were linked by a peptide sequence containing the thrombin cleavage site ([…]↓ GSLQ (RG)) (GFP^2-RG-RLuc) and expressed in E. coli.
GFP^2-RG-RLuc biosensor was expressed and purified as reported previously (Dacres et al. 2009a). The purified fusion protein was in thrombin cleavage buffer (10 mM Tris (pH 8.0), 100 mM NaCl, 1 mM EDTA). The final concentration of the native coelenterazine substrate (Biosynth) used for microfluidic based assays was 58.6 μM and 5 μM for plate-reader based assays. 1 unit (U)/μl thrombin protease (Amersham Biosciences) solution was prepared in 1× phosphate buffer saline (PBS).
Simultaneous dual emission hybrid BRET measurements were carried out both in a microplate using a SpectraMax M2 spectrofluorimeter (Molecular Devices) and in the microfluidics apparatus described below. Spectral scans of BRET constructs were recorded using the luminescence scan mode between 400 and 650 nm on addition of 5 μM native coelenterazine substrate to 1 μM of biosensor. […]
Using the microplate spectrometer, hybrid BRET ratios were calculated as the ratio of bioluminescence emissions measured at 500 nm and 470 nm. […]

Substance: thrombin
- kcat of thrombin [1]: ≈ 85 s^−1
- change in BRET^2 ratio (GFP/RLuc) after digestion of the sensor ([2]; 270 pM thrombin): approximately tenfold
- decrease in BRET^2 signal, on-chip reaction ([2]; 540 nM thrombin, 1 μM sensor, 12.5 μM substrate, two-inlet device, 50 μL/hr): Approximately 75%
- BRET^H ratio following thrombin cleavage [3]: 0.75±0.04 and 0.79±0.05
- decrease in BRET^H ratio following thrombin cleavage [3]: approximately 32%

From patent publication US11385234B2, “Methods and systems for detecting an analyte or classifying a sample” (Commonwealth Scientific and Industrial Research Organisation, priority 2012, dated 2022)
